Experiments:
breast cancer (MCF-7) = experiment: Antiproliferative MTT assay, MCF-7; assay type: cell-based; conditions: Homo sapiens, MCF7, MCF-7 breast cancer cells, read-out: Antiproliferative activity IC50 ± SEM, MCF-7
Procedure: The median inhibitory concentration (IC50) and GI50 (mean IC50) for the four cancer cell lines were calculated. Appendix A ^† contains more details. […]

Bcl-2 = Bcl-2 level assay in MCF-7; assay type: cell-based, human; conditions: for Bcl-2 Fold reduction: MCF-7, versus untreated control; for Bcl-2 Conc.: MCF-7 cancer cell line
Procedure: Compounds 8g and 8h were evaluated as caspase-3, 8 and Bax activators and as down-regulator of the anti-apoptotic protein Bcl2 against the MCF-7 breast cancer cell line.[40] Appendix A ^† contains more details. […]
4.2.1.8. Bcl-2inhibition assay
Mix all reagents thoroughly without foaming before use. Wash the microwells twice with approximately 300 μL Wash Buffer per well with thorough aspiration of microwell contents between washes. Take caution not to scratch the surface of the microwells. After the last wash, empty the wells and tap microwell strips on absorbent pad or paper towel to remove excess Wash Buffer. Use the microwell strips immediately after washing or place upside down on a wet absorbent paper for not longer than 15 minutes. […] Add 100 μL of Sample […]
Diluent in duplicate to all standard wells and to the blank wells. Prepare standard (1:2 dilution) in duplicate ranging from 32 ng/mL to 0.5 ng/mL. Add 100 μL of Sample Diluent, in duplicate, to the blank wells. Add 80 μL of Sample Diluent, in duplicate, to the sample wells. Add 20 μL of each Sample, in duplicate, to the designated wells. Add 50 μL of diluted biotin-conjugate to all wells, including the blank wells. Cover with a plate cover and incubate at room temperature, on a microplate shaker at 100 rpm if available, for 2 hours. Remove plate cover and empty the wells.
Wash microwell strips 3 times as described in step 2. Add 100 μL of diluted Streptavidin-HRP to all wells, including the blank wells. Cover with a plate cover and incubate at room temperature, on a microplate shaker at 100 rpm if available, for 1 hour. Remove plate cover and empty the wells.
Wash microwell strips 3 times as described in step 2. Proceed to the next step. Pipette 100 μl of mixed TMB Substrate Solution to all wells, including the blanks. Incubate the microwell strips at room temperature (18° to 25°C) for about 15 minutes, if available on a rotator set at 100 rpm.
Avoid direct exposure to intense light. The point, at which the substrate reaction is stopped, is often determined by the ELISA reader. Many ELISA readers record absorbance only up to 2.0
O.D. Therefore, the color development within individual microwells must be watched by the person running the assay and the substrate reaction stopped before positive wells are no longer properly detectable. Stop the enzyme reaction by quickly pipetting 100 μL of Stop Solution into each well, including the blank wells. It is important that the Stop Solution is spread quickly and uniformly throughout the microwells to completely inactivate the enzyme. Results must be read immediately after the Stop Solution is added or within one hour if the microwell strips are stored at 2 - 8°C in the dark. Read absorbance of each microwell on a spectrophotometer using 450 nm as the primary wavelength. […]
(FITC) and propidium iodide (PI) staining kit (BD Pharmingen, San Diego, USA). […]
μL of FITC and PI were added to Eppendorf tube, cells were vortexed, incubated for 15 min at room temperature in dark. Subsequently, cells were analyzed by flow cytometry (Becton Dickinson, Franklin Lakes, and USA).

Caspase-3 = Caspase-3 activation assay in MCF-7; assay type: cell-based, human; conditions: for Caspase-3 Fold change: MCF-7, versus untreated control; for Caspase-3 Conc.: MCF-7 cancer cell line
Procedure: Compounds 8g and 8h were evaluated as caspase-3, 8 and Bax activators and as down-regulator of the anti-apoptotic protein Bcl2 against the MCF-7 breast cancer cell line.[40] Appendix A ^† contains more details.
Compounds 8g and 8h were evaluated as caspase-3 activators against the MCF-7 breast cancer cell line,[40] with results presented in Table 3. […] The compounds 8g and 8h increased the concentration of caspase-3 protein in the MCF-7 cancer cell line, showing levels that were 11 and 10 times higher than the untreated control and higher than staurosporine. […]
cancer cells, commercially available ELISA kits (Invitrogen) were used according to manufacturer’s instructions.
4.2.1.5. Caspase-3 activation assay
Allow all reagents to reach room temperature before use. Gently mix all liquid reagents prior to use. Determine the number of 8-well strips needed for the assay. Insert these in the frame(s) for current use. Add 100 μl of the Standard Diluent Buffer to the zero standard wells. Well(s) reserved for chromogen blank should be left empty. Add 100 μl of standards and controls or diluted samples to the appropriate microtiter wells. The sample dilution chosen should be optimized for each experimental system. Tap gently on side of plate to mix. Cover wells with plate cover and incubate for 2 hours at room temperature. Thoroughly aspirate or decant solution from wells and discard the liquid, Wash wells 4 times. Pipette 100 μl of Caspase-3 (Active) Detection Antibody solution into each well except the chromogen blank(s). Tap gently on the side of the plate to mix. Cover plate with plate cover and incubate for 1 hour at room temperature. Thoroughly aspirate or decant solution from wells and discard the liquid, Wash wells 4 times. Add 100 μl Anti-Rabbit IgG HRP Working Solution to each well except the chromogen blank(s). Prepare the working dilution as described in Preparing IgG HRP. Cover wells with the plate cover and incubate for 30 minutes at room temperature. Thoroughly aspirate or decant solution from wells and discard the liquid. Wash wells 4 times. Add 100 μl of Stabilized Chromogen to each well. The liquid in the wells will begin to turn blue. Incubate for 30 minutes at room temperature and in the dark. The incubation time for chromogen substrate is often determined by the microtiter plate reader used. Many plate readers have the capacity to record a maximum optical density (O.D.) of 2.0. The O.D. values should be monitored, and the substrate reaction stopped before the O.D. of the positive wells exceeds the limits of the instrument. The O.D. values at 450 nm can only be read after the Stop Solution has been added to each well. If using a reader that records only to 2.0 O.D., stopping the assay after […]
Add 100 μl of Stop Solution to each well. Tap side of plate gently to mix. The solution in the wells should change from blue to yellow. Read the absorbance of each well at 450 nm having blanked the plate reader against a chromogen blank composed of 100 μl each of Stabilized Chromogen and Stop Solution. Read the plate within 2 hours after adding the Stop Solution. Use a curve fitting software to generate the standard curve. A four-parameter algorithm provides the best standard curve fit. Read the concentrations for unknown samples and controls from the standard curve. Multiply value(s) obtained for sample(s) by the appropriate dilution factor to correct for the dilution in step 3. Samples producing signals greater than that of the highest standard should be diluted in Standard Diluent Buffer and reanalyzed. […]
Tubulin.). The absorbance of each microwell was read on a spectro-photometer at 450 nm. A standard curve is prepared from 7human Caspase-8 standard dilutions and human Caspase-8 concentration determined.
4.2.1.7. Bax activation assay

Compound	IC50 (breast cancer (MCF-7)) [nM]	Bcl-2 Fold reduction (Bcl-2)	Bcl-2 Conc. (Bcl-2) [ng/mL]	Caspase-3 Fold change (Caspase-3)	Caspase-3 Conc. (Caspase-3) [pg/mL]
Cc1ccc(-n2cc(CSc3nc4ccccc4c(=O)n3-c3ccc(C)cc3)nn2)cc1 [Compound 8h, 2-(((1-(p-Tolyl)-1H-1,2,3-triazol-4-yl)methyl)thio)-3-(p-tolyl)quinazolin-4(3H)-one]	22 ± 1	6	0.90	10	650 ± 5
CN[C@@H]1C[C@H]2O[C@@](C)([C@@H]1OC)n1c3ccccc3c3c4c(c5c6ccccc6n2c5c31)C(=O)NC4 [Staurosporine, reference compound]	–	5	1.10	8	503 ± 4
COc1ccc(-n2cc(CSc3nc4ccccc4c(=O)n3-c3ccc(C)cc3)nn2)cc1 [Compound 8g, 2-(((1-(4-Methoxyphenyl)-1H-1,2,3-triazol-4-yl)methyl)thio)-3-(p-tolyl)quinazolin-4(3H)-one]	20 ± 1	7	0.70	11	695 ± 5

— PMC11618052, “Design, synthesis, and antiproliferative activity of new 1,2,3-triazole/quinazoline-4-one hybrids as dual EGFR/BRAF^V600E inhibitors” (RSC Advances, 2024)
